Molecules are shown by their SMILES. Where only a bound is given, the exact number is not on record here.

As usually defined, the melting point is the temperature, or range, at which the solid turns liquid. Turning to `CN(Cc1nc(-c2cc(C(C)(C)C)c(O)c(C(C)(C)C)c2)cs1)C(=O)OC(C)(C)C`, the melting point lay within 126 to 127 °C. For the compound `Cc1nnc2ccc(-c3cccc(NC(=O)N(C)C)c3)nn12`, the melting point fell in the range of 237 to 239 °C. In the case of `CCc1cc(COc2nn(Cc3ccccc3)cc2C(=O)O)ccc1OCc1nc(-c2ccco2)oc1C` it was 173 to 174 °C. In the case of `O=C(O)CCNCCn1nc(-c2c(-c3ccccc3)nn3ccccc23)ccc1=O` it was 230 to 232 °C.

The compound `CCC1=Nc2c(C)nn(C)c2C2=NCC(C)N12` (stereo not given) registered a melting point of 105 to 107 °C. In the case of `O=C(O)c1cccc(CC2COc3cc(OCc4ccc5ccccc5n4)ccc3C2O)c1` (stereo not given) it was 165 to 168 °C; in that of `Cc1cc(N(C)S(=O)(=O)c2cccs2)c2[nH]c(C3=NCC(CNC(=O)OCc4ccccc4)S3)cc2c1` (stereo not given), 160 °C; in that of `COC(=O)CC1CCc2cc(OC)ncc2C1O` (stereo not given), 92 to 96 °C. In the case of `CCN(C#N)C(=O)CCCCC(=O)N(C#N)CC` it was 38.7 to 40.1 °C; in that of `CCC(=O)c1c(O)cccc1O`, 135 to 136 °C. `CC(C)=CCOc1ccc(C(=O)C=Cc2c[nH]c3ccccc23)c(O)c1` came in with a melting point of 228 to 230 °C. Then `COc1ccccc1C(=O)ON1C(=O)CCC1=O`, with 180 to 182 °C; and `CCCN(C(=O)OCC(Cl)(Cl)Cl)C1CN(C(=O)Nc2ccc(C(F)(F)F)cc2)N=C1c1ccc(OC(F)F)c(C)c1` (stereo not given), with 165 to 166 °C. In the case of `CCOC(=O)c1cc(-c2ccc(Cl)cc2)ns1` it was 87.5 to 89 °C; in that of `O=C(Oc1ccccc1)N1Cc2ccccc2C(c2ccccc2Cl)c2ccccc21` (stereo not given), 95 to 99 °C.

In turn, `O=C(C=Cc1ccccc1)NNC(=O)C=Cc1ccccc1` yielded a melting point of 267 to 268 °C. Turning to `COC(=O)C(=CNc1ccsc1C(=O)O)SC`, the melting point was in the range of 179 to 180 °C. `CN(CC1CCN(CC2COc3ccccc3O2)CC1)c1nc2ccccc2s1` (stereo not given) returned a melting point of 125 °C.

For the compound `COc1ccccc1[C@@]1(O)[C@H](O)CC(c2ccccc2)(c2ccccc2)[C@@H]2CN(C(=O)Cc3c[nH]c4ccc(F)cc34)C[C@@H]21` (racemic), the melting point turned out to be 248 °C. `CNc1cccc(NS(=O)(=O)c2ccc(N)cc2)c1` showed a melting point of 134 to 135 °C. In the case of `CCCCc1ccc(C(=O)O)c2ccccc12` it was 136 to 137 °C; in that of `O=[N+]([O-])c1nccn1CC(O)CN1CC1` (stereo not given), 118 to 120 °C. Then `CC(=O)N1CCC(Nc2ccccc2Oc2ccc(Cl)cc2Cl)CC1`, with 145 to 146 °C; and `CC(=O)c1ccc(-c2cccc(C(F)(F)F)c2)o1`, with 105 to 109 °C; and `FC(F)(F)c1nc2cnc3ccccc3c2[nH]1`, with 252 to 254 °C. Then `COc1ccc(CCN2COc3c(cccc3OC)C2)cc1`, with 69 to 70 °C; and `CC1CC(C)CN(c2nccc(Oc3ccc(NC(=O)c4cc(F)cc(N5CCOCC5)c4)c4ccccc34)n2)C1` (stereo not given), with 102 to 104 °C. `O=C(N[C@H]1CC[C@H](CCN2CCC(c3cccc4c3CCO4)CC2)CC1)C1(O)CC1` showed a melting point of 164 °C. Then `O=C(O)c1cc(CO)ccc1O`, with 108 to 110 °C. In the case of `COC(=O)/C(=N/NC(N)=O)c1ccc(OCCOc2ccc3ccccc3c2)cc1`, the melting point lay within 132 to 134 °C. In the case of `COC(=O)c1cc(-c2ccc(OC)c(OC)c2)nc2ccc(Br)cc12` it was 154 °C; in that of `CCOC(=O)CCN(CCCCCCN(CCC(=O)OCC)C1CC(C)(C)NC(C)(C)C1)C1CC(C)(C)NC(C)(C)C1`, 58 to 60 °C; in that of `N#Cc1cc(-c2ccccc2)cnc1Cl`, 149 to 150 °C. In the case of `N#CC1(N)CCc2cccc(Cl)c2C1` (stereo not given) it was 67 to 69 °C; in that of `O=[N+]([O-])c1c(OC(F)(F)F)ccc2nc(Cl)sc12`, 64 °C; in that of `CCCCn1nc(C(N)=O)cc1CC`, 60 to 61 °C. Then `COc1ccc2c(c1)Sc1cc(OC(C)=O)c(OC)cc1N2`, with 172 to 174 °C; and `c1ccc(C(c2ccccc2)N2CCc3ccccc32)cc1`, with 62 to 63.5 °C. `CC12CCC3C(CCC4CC(=O)CCC43CO[Si](C)(C)C(C)(C)C)C1CCC2=O` (stereo not given) showed a melting point of 130 to 132 °C. In the case of `COC(=O)c1cc2cc(OC)c(OC)cc2c(C)c1C(=O)OC` it was 142 to 144 °C; in that of `COc1cc(OC)c(-c2cc3ccccc3s2)cc1/C=C/C(=O)c1ccc(Nc2c(N)c(=O)c2=O)cc1`, over 260 °C. Then `Cc1cccc(NS(=O)(=O)c2ccc(NC3=C(Cl)C(=O)c4ccccc4C3=O)cc2)c1`, with 234 to 237 °C; and `CC(C)(C)C(=O)Nc1ccc(-c2nc3n(c2-c2ccc(NC(=O)C(C)(C)C)cc2)CCS3)cc1`, with 210 to 215 °C. `CCOC(=O)c1c(-c2cccc(Cl)c2)c2cc(C(=O)c3nc(-c4ccccc4)cs3)ccc2[nH]c1=O` displayed a melting point of 261 °C. Consider `CCc1noc(-c2cc3c4ccccc4n(CCCN4CCC(O)(c5ccccc5)CC4)c3cn2)n1`, for which the melting point was in the range of 169 to 170 °C. In turn, `CCOC(=O)C1=C(COCCNCC(=O)OC)NC(C)=C(C(=O)OC)C1c1cccc(Cl)c1Cl` (stereo not given) yielded a melting point of 96 to 98 °C. Then `CCCCCCc1cc2c(cc1/C=C/c1ccc(C(=O)O)s1)C(C)(C)CCC2(C)C`, with 164 to 165 °C; and `CCC1(c2ccnc(OC)c2CO)OCCCO1`, with 79 °C. The compound `CC(C)N1CCC(Nc2nc3cncnc3n2Cc2ccc(F)cc2)CC1` returned a melting point of 186 °C. `CC(C)N1CCNC(=O)c2ccc(Nc3ncc(Cl)c(N[C@@H]4CCCC[C@H]4NS(C)(=O)=O)n3)cc21` had a melting point of 189 to 191 °C. In turn, `COc1cc(N)c(Cl)cc1C(=O)NCC1CCN(CCS(=O)(=O)Cc2ccccc2)CC1` displayed a melting point of 220 to 223 °C. In the case of `O=C(O)c1cn(-c2ccc(F)cc2F)c2c(F)c(N3Cc4cccc(Cl)c4C3)c(F)cc2c1=O` it was 256 to 260 °C; in that of `CCC(CC)Oc1cc(C)nc(Oc2c(C)cc(C(=O)O)cc2C)c1C`, 168 °C. In turn, `COC(=O)c1cc(OCCCCCCCCCCCCOc2ccccc2)ccc1OCc1ccccc1` gave a melting point of 46 to 48 °C. Then `CCCCOc1ccc(C(=O)c2cccc(C(=O)O)c2)c(O)c1`, with 175 °C; and `CC(=O)COc1cccnc1C(N)=O`, with 135 to 140 °C.

The compound `Cc1cc(NCCNCC(O)COc2ccccc2)c2ccccc2n1` (stereo not given) displayed a melting point of 151 to 152 °C.

Turning to `c1ccc(COc2ccc(-c3cocn3)cc2)cc1`, the melting point is 101 to 102 °C. In the case of `COc1ccc(COCCC(C)=O)cc1`, the melting point lay within 48 to 49 °C. As for `CC(C)n1nc(-c2sc(NC(=O)c3ccc(C(F)(F)F)cc3)nc2-c2ccccc2)ccc1=O`, the melting point fell in the range of 162 to 167 °C. Turning to `CN(C)CC(C)(C)Oc1ccc(Nc2cc(-c3cccc(-n4ncc5cc(C(C)(C)C)cc(F)c5c4=O)c3CO)nn(C)c2=O)nn1`, the melting point fell in the range of 140 to 145 °C.

Consider `CNC(=O)c1c(Cl)ccc(Cl)c1OC`, for which the melting point was 172 to 175 °C. As for `CC(C)CN(CC(C)C)c1ccc(NC(=O)N(C[C@H]2CC[C@H](CN(C(=O)Nc3ccc(N(CC(C)C)CC(C)C)cc3)C3CCCCC3)CC2)C2CCCCC2)cc1`, the melting point fell in the range of 140 to 142 °C.

For the compound `O=C(O)c1ccc(-c2cnc3c(c2)N(Cc2ccccc2)C(=O)CN3)cc1`, the melting point is over 200 °C. `Cc1ccc2c(N)c(C#N)sc2n1` showed a melting point of 241 to 242 °C.

`CCOC(=O)CC(=O)CNC(=O)CCc1cc(-c2ccc(C(F)(F)F)cc2)oc1C` registered a melting point of 131 to 133 °C. In the case of `COC(=O)COc1cccc2c(CCS(=O)(=O)CCc3ccccc3)c(C)oc12` it was 91 to 92 °C. Take `C=C(C)C(=O)Nc1cccc(OC(=O)Nc2cccc3ccccc23)c1`: the melting point was 195 to 196 °C. In the case of `Nc1nc(OCC(F)(F)F)cc(C(F)(F)F)n1` it was 108 to 110 °C; in that of `Cc1cc(Oc2cccc(C(F)(F)F)c2)nn1C(=O)Nc1ccc(F)cc1F`, 84 to 85 °C.

The compound `CCc1nc2c(N)nc3ccccc3c2n1CC1(O)CCCCC1` gave a melting point of 217 to 218 °C. Then `CCCc1ccc(S(=O)(=O)c2ccc(F)cc2)cc1S(=O)(=O)NCCc1ccncc1`, with 160 to 162 °C; and `O=C(O)C=CC=Cc1cccc2cncn12`, with 243 to 245 °C.

On to `CCc1cc(OC)c(C=O)cc1OC`, for which the melting point lay within 46 to 47 °C.

As to `COc1cc(C(=O)O)ccc1-c1ccncc1`, the melting point lay within 239 to 241 °C. As for `Cc1c(N)nc(Cl)nc1Cl`, the melting point was 193 to 194 °C. In the case of `C1=CNC2=NCCN2C1` it was 107 to 113 °C; in that of `O=C1c2ccc(OCCCO)cc2C(=O)c2ccc(OCCCO)cc21`, 190 °C. On to `CCc1c(OC)cc(C2CNC(=O)C2)cc1OC` (stereo not given), for which the melting point was 156 °C. `CN(C#N)C(=O)CCCCCCCCC(=O)N(C)C#N` displayed a melting point of 83.4 to 84 °C. As to `CC(=O)OCCN1CCN(C)c2cc(Nc3ncc(Cl)c(N[C@@H]4CCCC[C@H]4NS(C)(=O)=O)n3)ccc2C1`, the melting point was in the range of 110 to 142 °C. Then `O=C1NC(CC(=O)C2CC2)c2cccn2-c2sccc21` (stereo not given), with 200 °C. Then `CC(C)(C)OC(=O)N1CCC(c2nc3ccc(-c4ccc(S(C)(=O)=O)cc4F)cc3o2)CC1`, with 174 to 178 °C; and `ClCCCOc1ccccc1Nc1nc(Cl)nc2c1ncn2C1CCCC1`, with 110 to 112 °C. In the case of `O=C1CCC(=O)C(c2cccc(Cl)c2)N1` (stereo not given) it was 144 to 147 °C; in that of `O=C(O)c1[nH]c2cc(Cl)cc(Cl)c2c1C=C1CON(c2ccccc2)C1=O`, over 250 °C; in that of `c1ccc(C2CCCC2OCC2CO2)cc1` (stereo not given), 31 °C. As for `NCC1CCc2[nH]c3ccc(F)c(Cl)c3c2C1` (stereo not given), the melting point lay in the range of 179 to 180 °C. In turn, `CC(=O)N1CC(=Cc2ccncc2)C(=O)c2ccccc21` displayed a melting point of 170 °C. Compound `Cn1c(=O)c(C(=O)O)c(-c2ccccc2)c2cc(Cl)ccc21` returned a melting point of 242 to 243 °C.

(Values after a melting point compilation (Tetko et al.; mined from patent text by program, amines drawn as free bases though some values may be those of a salt).)
